Source: patent US20240150423A1, “GLP-1 ANALOGUE-MODIFIED DIMERS WITH DIFFERENT CONFIGURATIONS, PREPARATION METHOD THEREOF, AND APPLICATION THEREOF IN TREATMENT OF TYPE II DIABETES” (Nanjing Finepeptide Biopharmaceutical Co.,Ltd, priority 2019, published 2024)
Several values for one entry are separate records, joined by “and”; a condition that tells them apart may be missing. Equal values may be shown once. Read-outs that look alike come from different tables or passages of the source.

Legend:
Normal Kunming (KM) mice [1] = experiment: multiple OGTT (mOGTT): hypoglycemic duration after a single administration; format: in vivo; conditions: single injection at the same dose (1.126 nmol), subcutaneous
Summary of the method: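 Tail blood glucose was followed by meter in normal KM mice after one dosing and glucose gavage, at 0, 10, 20, 40, 60 and 120 min. Measurement stopped when the treated mean rose above the NaCl group twice; the period before that is the effective duration.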

Normal Kunming (KM) mice [2] = experiment: single oral glucose tolerance test (sOGTT); format: in vivo; conditions: for glucose peak in single OGTT: after a single administration and oral glucose, tail blood at 0-120 min
Description: • 1. Methods: Normal Kunming (KM) mice (purchased from Guangdong Animal Center) were used for oral glucose tolerance test (OGTT) to obtain the hypoglycemic activity and durability of drug. […] The blood glucose meter and blood glucose test paper were from Bayer […]. The average blood glucose of each group was used as an evaluation standard: When the average blood glucose of experimental group was higher than that of the NaCl control group for two times, the measurement stopped and the hypoglycemic period compared to the blank control group was the effective duration. • 2. Results • 2.1 single OGTTs: after a single administration, the mice were orally administered glucose once and measured the blood glucose from the tail blood at 0, 10, 20, 40, 60 and 120 min. […] The duration of each monomer group was about 1⁄2-1⁄4 of the duration of its corresponding dimer group. […] Therefore, the 2G3 peptide was selected for treating type II diabetes (T2D) in vivo and subsequent experiments.

GLP-1R = GLP-1R Western blot analysis in T2D model; format: in vivo, C57B16/J mice; conditions: compared with the model control group
[3] = T2D model treatment: body weight and organ weights; format: in vivo, C57B16/J mice; conditions: 2G3 study, 35 days
Procedure: C57B16/J mice were placed in an SPF-level environment with a standard diet. All experimental operations were performed in accordance with the guidelines of the ethics and uses of experimental animals. […] The NaCl-PB group served as blank control and the model control group served as the T2D model control. They were injected with NaCl-PB solution. The T2D model group was fed with 60 kcal % high-fat diet (D12492, Changzhou SYSE Bio-tech. Co., Ltd., China) until the end of the experiment. Meanwhile the blank control group maintained standard diet. […] These groups were subjected to a 35-day treatment study on the basis of the high-fat diet. • 1. […] The monomeric peptides were dissolved into a saline solution (pH 6.5) for injection. • 2. […] The models were measured blood glucose at the tail and weight weighted every morning at 9 am. […] In the T2D treatment study, all T2D model mice were injected subcutaneously at the back hip in 100 μl per mouse within 30 min. The blood glucose of the experimental mice was measured every five days and the whole measurement was completed within 40 min. […] No. 8-9695-03-201-1, Novo Nordisk company, Switzerland) until the end of the 35-day experiment. • 3.

KM mice = experiment: Hypoglycemia test in fasted KM mice at multiples of the low dose; format: in vivo; conditions: 8 and 68 times of low dose, KM mice fasted for 13 hour, within 3 hours after the administration
[4] = trial for 26 weeks; cited from earlier work
[5] = clinic trial for 24 weeks, once a day; cited from earlier work
[6] = speculated; cited from earlier work
[7] = in vivo; cited from earlier work
[8] = cited from earlier work
thyroid C-cell = conditions: rodents, dose-dependent and time-dependent; cited from earlier work
[9] = high dose 3.378 nmol/100 μL once a day
[10] = low dose 0.375 nmol/100 μL once a day
[11] = medium dose and Liraglutide group 1.126 nmol/100 μL once a day

2G2 series 7: disulfide-linked homodimer of monomer SEQ ID NO: 7 (HAEGTFTSDVCSYLEGQAAXEFIAWLVRGRG; disulfide-linked homodimer; Sequence is synthesized; (20)..(20) Xaa is Xaa is 26Lys[N-e-(N-a-Palmitoyl-g-glutamyl)]; (31)..(31) C-terminal)
Hypoglycemic duration (days) (Normal Kunming (KM) mice [1]): 5 (2G2 peptide) days | hypoglycemic effect in single OGTT (Normal Kunming (KM) mice [2]; with more time, no significant difference): stronger than that of monomeric G2 or G3 | GLP-1R expression (Western blot) (GLP-1R): significantly increased GLP-1R

CCCCCCCCCCCCCCCC(=O)N[C@@H](CCC(=O)NCCCC[C@H](NC(=O)[C@H](C)NC(=O)[C@H](C)NC(=O)[C@H](CCC(N)=O)NC(=O)CNC(=O)[C@H](CCC(=O)O)NC(=O)[C@H](CC(C)C)NC(=O)[C@H](Cc1ccc(O)cc1)NC(=O)[C@H](CSSC[C@H](NC(=O)[C@H](CO)NC(=O)[C@@H](NC(=O)[C@H](CC(=O)O)NC(=O)[C@H](CO)NC(=O)[C@@H](NC(=O)[C@H](Cc1ccccc1)NC(=O)[C@@H](NC(=O)CNC(=O)[C@H](CCC(=O)O)NC(=O)[C@H](C)NC(=O)[C@@H](N)Cc1c[nH]cn1)[C@@H](C)O)[C@@H](C)O)C(C)C)C(=O)N[C@@H](Cc1ccc(O)cc1)C(=O)N[C@@H](CC(C)C)C(=O)N[C@@H](CCC(=O)O)C(=O)NCC(=O)N[C@@H](CCC(N)=O)C(=O)N[C@@H](C)C(=O)N[C@@H](C)C(=O)N[C@@H](CCCCNC(=O)CC[C@H](NC(=O)CCCCCCCCCCCCCCC)C(=O)O)C(=O)N[C@@H](CCC(=O)O)C(=O)N[C@@H](Cc1ccccc1)C(=O)N[C@H](C(=O)N[C@@H](C)C(=O)N[C@@H](Cc1c[nH]c2ccccc12)C(=O)N[C@@H](CC(C)C)C(=O)N[C@H](C(=O)N[C@@H](CCCNC(=N)N)C(=O)NCC(=O)N[C@@H](CCCNC(=N)N)C(=O)NCC(=O)O)C(C)C)[C@@H](C)CC)NC(=O)[C@H](CO)NC(=O)[C@@H](NC(=O)[C@H](CC(=O)O)NC(=O)[C@H](CO)NC(=O)[C@@H](NC(=O)[C@H](Cc1ccccc1)NC(=O)[C@@H](NC(=O)CNC(=O)[C@H](CCC(=O)O)NC(=O)[C@H](C)NC(=O)[C@@H](N)Cc1c[nH]cn1)[C@@H](C)O)[C@@H](C)O)C(C)C)C(=O)N[C@@H](CCC(=O)O)C(=O)N[C@@H](Cc1ccccc1)C(=O)N[C@H](C(=O)N[C@@H](C)C(=O)N[C@@H](Cc1c[nH]c2ccccc12)C(=O)N[C@@H](CC(C)C)C(=O)N[C@H](C(=O)N[C@@H](CCCNC(=N)N)C(=O)NCC(=O)N[C@@H](CCCNC(=N)N)C(=O)NCC(=O)O)C(C)C)[C@@H](C)CC)C(=O)O [2G3 series 20]
Weight of organs, Heart [3, 9]: 0.1235 ± 0.02 g | Weight of organs, Left kidney [3, 9]: 0.1661 ± 0.02 g | Weight of organs, Left testis [3, 9]: 0.1070 ± 0.01 g | Weight of organs, Liver [3, 9]: 1.023 ± 0.12b*c* g | Weight of organs, Lung [3, 9]: 0.1523 ± 0.02 g | Weight of organs, Pancreas [3, 9]: 0.3202 ± 0.07 g | Weight of organs, Right kidney [3, 9]: 0.1640 ± 0.02 g | Weight of organs, Right testis [3, 9]: 0.1060 ± 0.01c* g | Weight of organs, Spleen [3, 9]: 0.0763 ± 0.01 g | Weight of organs, adipose tissue [3, 9]: 1.0047 ± 0.30b* g | Weight of organs, Heart [3, 10]: 0.1199 ± 0.01 g | Weight of organs, Left kidney [3, 10]: 0.1703 ± 0.02 g | Weight of organs, Left testis [3, 10]: 0.1065 ± 0.01 g | Weight of organs, Liver [3, 10]: 1.138 ± 0.18a*c** g | Weight of organs, Lung [3, 10]: 0.1565 ± 0.02 g | Weight of organs, Pancreas [3, 10]: 0.3329 ± 0.05b* g | Weight of organs, Right kidney [3, 10]: 0.1648 ± 0.02 g | Weight of organs, Right testis [3, 10]: 0.1085 ± 0.01c* g | Weight of organs, Spleen [3, 10]: 0.0794 ± 0.02 g | Weight of organs, adipose tissue [3, 10]: 1.2216 ± 0.41a*c* g | Weight of organs, Heart [3, 11]: 0.1207 ± 0.01 g | Weight of organs, Left kidney [3, 11]: 0.1750 ± 0.02c* g | Weight of organs, Left testis [3, 11]: 0.1041 ± 0.01 g | Weight of organs, Liver [3, 11]: 1.048 ± 0.06a*b*c *** g | Weight of organs, Lung [3, 11]: 0.1429 ± 0.02 g | Weight of organs, Pancreas [3, 11]: 0.3115 ± 0.03 g | Weight of organs, Right kidney [3, 11]: 0.1617 ± 0.01 g | Weight of organs, Right testis [3, 11]: 0.1052 ± 0.01c* g | Weight of organs, Spleen [3, 11]: 0.0807 ± 0.01a* g | Weight of organs, adipose tissue [3, 11]: 1.0369 ± 0.44b* g | hypoglycemia (KM mice): did not induce any one of 6 KM mice fasted for 13 hour to produce hypoglycemia

Albiglutide
body weight reduction [4]: 0.6 kg

Dulaglutide
body weight reduction [4]: 2.9 kg

His-Ala-Glu-Gly-Thr-Phe-Thr-Ser-Asp-Val-Cys-Ser-Tyr-Leu-Glu-Gly-Gln-Ala-Ala-Lys[N-ϵ-(N-α-Palmitoyl-L-γ-glutamyl)]-Glu-Phe-Ile-Ala-Trp-Leu-Val-Arg-Gly-Arg-Gly-OH (HAEGTFTSDVCSYLEGQAAXEFIAWLVRGRG; palmitoyl-γ-glutamyl on Lys; C-terminal acid; Sequence is synthesized; (20)..(20) Xaa is Xaa is 26Lys[N-e-(N-a-Palmitoyl-g-glutamyl)]; (31)..(31) C-terminal) [G2 series 7]
glucose peak in single OGTT (Normal Kunming (KM) mice [2]): no blood glucose peak appeared

His-Ala-Glu-Gly-Thr-Phe-Thr-Ser-Asp-Val-Ser-Cys-Tyr-Leu-Glu-Gly-Gln-Ala-Ala-Lys[N-ϵ-(N-α-Palmitoyl-L-γ-glutamyl)]-Glu-Phe-Ile-Ala-Trp-Leu-Val-Arg-Gly-Arg-Gly-OH (HAEGTFTSDVSCYLEGQAAXEFIAWLVRGRG; palmitoyl-γ-glutamyl on Lys; C-terminal acid; Sequence is synthesized; (20)..(20) Xaa is 26Lys[N-e-(N-a-palmitoyl-L-g-glutamyl)]; (31)..(31) C-terminal) [G3 series 20]
Hypoglycemic (day) (Normal Kunming (KM) mice [1]; monomeric peptides): 4 (G3 peptide) day | glucose peak in single OGTT (Normal Kunming (KM) mice [2]): no blood glucose peak appeared

Lixisenatide
incidence of side reaction [5]: 2.5% | symptomatic hypoglycemia rate [5]: 3.4%

Semaglutide
half-life [6]: 165 to 184 h | hypoglycemic activity reduction compared with Liraglutide [7]: 3 times | injection-site discomfort and erythema ([8]; % of patients): 0.2% | gastrointestinal adverse reactions ([8]; Semaglutide 0.5 mg group): 32.7% | gastrointestinal adverse reactions ([8]; Semaglutide 1 mg group): 36.4% | mean increase in amylase ([8]; human, in vivo): 13% | mean increase in lipase ([8]; human, in vivo): 22% | severe hypoglycemia ([8]; in combination with sulfonylurea, % of patients): 0.8-1.2% | Cholelithiasis ([8]; two values printed 'respectively', groups not named): 1.5% and 0.4% | thyroid C-cell tumor (thyroid C-cell): can cause thyroid C-cell tumor
